According to ChEMBL document CHEMBL1201862, “PubChem BioAssay data set” (2004):
Active and inactive are the calls of the source.

Assays:
[1] = NIH-3T3 fibroblast cytotoxicity, dose response, cytotoxicity control, cell-based, fluorescence, Alamar Blue, secondary assay (AID 2327); type: functional;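 note: NIH-3T3 mouse fibroblasts cultured with fluconazole at 8 µg/mL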
[2] = system: Streptococcus sp. 'group A'; experiment: growth inhibition of control SK(-) GAS strain, dose response, counter-screen for streptokinase expression inhibitor project, luminescence, kanamycin, BacTiterGlo, confirmation (AID 1900); type: functional, organism-based
[3] = C. albicans growth with fluconazole, confirmation, fluorescence, retest (AID 2467); type: functional, cell-based
[4] = system: Streptococcus; experiment: Group A Streptococcus viability loss, dose response, counter-screen for streptokinase expression inhibitor project, luminescence, BacTiterGlo (AID 1915); type: functional, organism-based;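 note: potency for reduction of bacterial viability or growth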
[5] = target: T1, Short transient receptor potential channel 4 (Mus musculus, UniProt Q9QUQ5); experiment: mouse TRPC4 channel activators, dose response, cell-based, HEK293 TRPC4/mu-opioid, Fluo-4 calcium (AID 434937); type: functional
T1 sequence (Q9QUQ5 whole entry): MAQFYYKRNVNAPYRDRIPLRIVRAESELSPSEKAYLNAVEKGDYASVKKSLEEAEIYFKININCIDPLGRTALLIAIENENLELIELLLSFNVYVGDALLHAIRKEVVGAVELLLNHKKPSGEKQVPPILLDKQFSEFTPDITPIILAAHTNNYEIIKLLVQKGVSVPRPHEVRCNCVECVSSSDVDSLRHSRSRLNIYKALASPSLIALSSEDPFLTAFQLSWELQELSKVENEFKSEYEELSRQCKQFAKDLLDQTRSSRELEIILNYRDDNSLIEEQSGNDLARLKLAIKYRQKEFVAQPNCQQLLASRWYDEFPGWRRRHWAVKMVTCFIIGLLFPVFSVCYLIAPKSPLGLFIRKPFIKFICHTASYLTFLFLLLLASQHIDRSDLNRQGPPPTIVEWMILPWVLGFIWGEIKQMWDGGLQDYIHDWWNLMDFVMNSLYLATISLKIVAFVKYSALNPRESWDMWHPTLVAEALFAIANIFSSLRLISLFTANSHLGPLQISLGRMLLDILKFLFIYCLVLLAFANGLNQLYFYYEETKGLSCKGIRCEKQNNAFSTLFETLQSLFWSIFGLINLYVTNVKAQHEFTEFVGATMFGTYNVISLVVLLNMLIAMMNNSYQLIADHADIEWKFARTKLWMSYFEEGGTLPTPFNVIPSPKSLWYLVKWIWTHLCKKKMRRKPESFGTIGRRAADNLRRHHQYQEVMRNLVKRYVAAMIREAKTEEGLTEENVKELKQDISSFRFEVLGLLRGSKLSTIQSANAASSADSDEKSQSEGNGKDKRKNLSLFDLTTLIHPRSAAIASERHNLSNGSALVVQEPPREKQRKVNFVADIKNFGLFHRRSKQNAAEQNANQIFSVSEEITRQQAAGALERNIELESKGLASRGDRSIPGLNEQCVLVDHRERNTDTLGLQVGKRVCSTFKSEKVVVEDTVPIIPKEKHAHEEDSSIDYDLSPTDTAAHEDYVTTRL

[6] = target: T2, Estrogen receptor (Homo sapiens, UniProt P03372);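 note: potency for inhibiting coactivator peptide recruitment to the receptor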
T2 sequence (P03372 whole entry): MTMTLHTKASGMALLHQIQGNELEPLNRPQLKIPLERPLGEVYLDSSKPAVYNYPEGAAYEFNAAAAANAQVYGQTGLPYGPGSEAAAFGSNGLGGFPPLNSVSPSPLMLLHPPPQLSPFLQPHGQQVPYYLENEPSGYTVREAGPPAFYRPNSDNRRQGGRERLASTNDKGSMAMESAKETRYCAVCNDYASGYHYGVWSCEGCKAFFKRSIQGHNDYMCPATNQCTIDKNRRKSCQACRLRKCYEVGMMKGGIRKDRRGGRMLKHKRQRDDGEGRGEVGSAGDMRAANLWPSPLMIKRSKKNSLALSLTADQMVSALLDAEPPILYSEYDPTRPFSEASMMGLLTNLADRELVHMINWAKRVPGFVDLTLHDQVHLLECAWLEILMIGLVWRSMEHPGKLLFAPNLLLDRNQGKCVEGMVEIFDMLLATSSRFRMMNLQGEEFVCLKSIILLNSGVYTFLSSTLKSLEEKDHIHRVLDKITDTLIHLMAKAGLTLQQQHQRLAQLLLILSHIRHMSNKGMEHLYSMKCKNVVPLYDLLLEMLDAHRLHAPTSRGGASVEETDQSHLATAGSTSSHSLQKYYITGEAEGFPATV

[7] = cytotoxicity in HPDE-C7 cells, cell-based, fluorescence, HTS (AID 430); type: functional; details: Homo sapiens
[8] = cytotoxicity in KRAS-transformed pancreatic duct cells, primary screen, cell-based, fluorescence, HTS (AID 431); type: functional; details: Homo sapiens;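 note: cell line used: HPDE-C7K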
[9] = target: T3, Heat shock factor protein 1 (Mus musculus, UniProt P38532); experiment: HSF1 potentiators in luciferase reporter cells, confirmation, cell-based, NIH3T3, luminescence, dose retest (AID 435004); type: functional;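 note: stress induced by proteasome inhibitor MG132 added 30 min after compound; luciferase reporter driven by HSF1 response element in NIH3T3 cells; actives raise luminescence as potentiators of the MG132 stress response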
T3 sequence (P38532 whole entry): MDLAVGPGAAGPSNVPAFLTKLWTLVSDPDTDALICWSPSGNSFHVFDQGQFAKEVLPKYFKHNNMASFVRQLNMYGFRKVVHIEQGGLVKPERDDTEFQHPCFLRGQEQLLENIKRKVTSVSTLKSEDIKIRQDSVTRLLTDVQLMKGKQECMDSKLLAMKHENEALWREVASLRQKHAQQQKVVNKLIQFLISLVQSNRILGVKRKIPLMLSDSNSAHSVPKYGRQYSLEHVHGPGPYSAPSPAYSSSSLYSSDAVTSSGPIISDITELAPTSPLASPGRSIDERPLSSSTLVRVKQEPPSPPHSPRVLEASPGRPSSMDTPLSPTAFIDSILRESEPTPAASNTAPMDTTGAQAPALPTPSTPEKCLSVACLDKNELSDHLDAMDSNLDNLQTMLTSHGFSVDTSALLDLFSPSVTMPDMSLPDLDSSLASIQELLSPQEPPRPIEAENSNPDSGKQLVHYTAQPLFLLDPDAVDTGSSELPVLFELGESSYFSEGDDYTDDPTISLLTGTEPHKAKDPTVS

[10] = A cytotoxicity screen of small molecule inhibitors of the PhoP region in Salmonella typhi identified in the primary screen. [Related pubchem assays: 1850, 1864, 1985 ]; type: functional
[11] = target: T4, Endoribonuclease toxin MazF (Escherichia coli K-12, UniProt P0AE70); experiment: MazF toxin RNase activators, dose response, biochemical, fluorescence, single-stranded RNA substrate, uHTS hits (AID 588481); type: functional
T4 sequence (P0AE70 whole entry): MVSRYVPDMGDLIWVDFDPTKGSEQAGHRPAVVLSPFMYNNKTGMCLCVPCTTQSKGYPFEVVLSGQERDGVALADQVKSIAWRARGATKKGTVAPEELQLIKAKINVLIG

[12] = system: INS1; experiment: beta cell apoptosis inhibitors, cytokine rescue, dose response, luminescence, retest (AID 449756); type: functional, cell-based; details: Rattus norvegicus;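 note: cell death triggered by IL-1 beta plus TNF-alpha plus IFN-gamma mixture; protective hits raise ATP signal compared with cytokine alone wells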
[13] = target: T4, Endoribonuclease toxin MazF; experiment: fluorescent RNA oligo signal without MazF, dose response, counter-screen for MazEF activator project, biochemical, fluorescence, single-stranded RNase substrate (AID 588502); type: functional
[14] = system: H9c2; experiment: cells; type: functional, cell-based; details: Rattus norvegicus, H9c2, Myocardium;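 note: confirmatory concentration-response retest of ultra-high-throughput screening hits for modulation of myocardial damage; cell death induced by hydrogen peroxide oxidative stress; compound pretreatment for 60 min then peroxide exposure for 2 h; potency is for protecting the cells against peroxide damage rather than for killing them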
[15] = cytotoxicity in HEK-293T cells, dose response, cytotoxicity control for BCR NF-kB inhibitor project, luminescence, B-cell screen hits (AID 489021); type: functional, cell-based;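 note: HEK-293T cells carrying an NF-kB luciferase reporter; cells exposed to compound for about 14 hours before viability readout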
[16] = target: Peroxisome proliferator-activated receptor gamma/Nuclear receptor coactivator 1 (Homo sapiens, UniProt P37231); experiment: TR-FRET dose response biochemical High Throughput Screening assay for agonists of the steroid receptor coactivator 1 (SRC-1) recruitment by the peroxisome proliferator-activated receptor gamma (PPAR gamma): non-selective agonists. [Related pubchem assays (depositor defined):AID1300, AID1808, AID504735, AID631]; type: protein assay
[17] = target: Peroxisome proliferator-activated receptor gamma/Nuclear receptor coactivator 3 (Homo sapiens, UniProt P37231); experiment: TR-FRET dose response biochemical High Throughput Screening assay for agonists of the steroid receptor coactivator 3 (SRC-3) recruitment by the peroxisome proliferator-activated receptor gamma (PPAR gamma): non-selective agonists. [Related pubchem assays: 1301 (Confirmation screen.), 1048 (Primary screen.)]; type: functional
[18] = target: Peroxisome proliferator-activated receptor gamma/Nuclear receptor coactivator 2 (Homo sapiens, UniProt P37231); experiment: TR-FRET dose response biochemical High Throughput Screening assay for agonists of the steroid receptor coactivator 2 (SRC-2) recruitment by the peroxisome proliferator-activated receptor gamma (PPAR gamma): non-selective agonists. [Related pubchem assays: 1297, 1032 ]; type: functional
[19] = cytotoxicity in HEK-293T cells, dose response, cytotoxicity control for TCR NF-kB inhibitor project, luminescence, T-cell screen hits (AID 489026); type: functional, cell-based;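 note: cells exposed to compound about 14 hours before the viability readout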
[20] = target: Voltage-dependent T-type calcium channel subunit alpha-1H (Homo sapiens, UniProt O95180); type: functional;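 note: channel activity triggered by adding a high calcium stimulation buffer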
[21] = THP-1 cell cytotoxicity, dose response, cytotoxicity control for non-replicating M. tuberculosis project (AID 489025); type: functional
[22] = cells; type: functional
[23] = target: Eukaryotic translation initiation factor 4E (Mus musculus, UniProt P63073); experiment: eIF4E–eIF4G protein interaction inhibitors, dose response, biochemical, TR-FRET (AID 855); type: functional;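 note: potency for disrupting eIF4E binding to eIF4GI seen as loss of FRET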
[24] = target: Cytochrome P450 3A4 (Homo sapiens, UniProt P08684); details: Potency;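 note: confirmatory qHTS run detecting inhibitors and substrates of CYP3A4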
[25] = target: Cytochrome P450 2D6 (Homo sapiens, UniProt P10635);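 note: CYP2D6 member of a cytochrome P450 panel assay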
Cytochrome P450 2D6, sequence (P10635 whole entry): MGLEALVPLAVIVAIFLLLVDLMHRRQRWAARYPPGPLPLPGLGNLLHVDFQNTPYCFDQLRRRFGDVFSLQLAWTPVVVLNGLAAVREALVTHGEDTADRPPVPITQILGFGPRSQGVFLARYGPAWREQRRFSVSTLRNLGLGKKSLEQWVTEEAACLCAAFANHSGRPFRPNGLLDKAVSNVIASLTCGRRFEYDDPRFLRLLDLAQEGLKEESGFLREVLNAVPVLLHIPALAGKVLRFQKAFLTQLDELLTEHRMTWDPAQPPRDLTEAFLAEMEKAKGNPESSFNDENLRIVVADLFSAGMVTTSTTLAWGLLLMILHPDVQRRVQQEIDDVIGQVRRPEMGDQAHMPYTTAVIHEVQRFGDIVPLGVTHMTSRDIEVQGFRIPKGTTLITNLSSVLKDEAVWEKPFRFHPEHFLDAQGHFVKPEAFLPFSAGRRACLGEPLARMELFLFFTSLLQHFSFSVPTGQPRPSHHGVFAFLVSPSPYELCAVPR

Voltage-dependent T-type calcium channel subunit alpha-1H, sequence (O95180 whole entry): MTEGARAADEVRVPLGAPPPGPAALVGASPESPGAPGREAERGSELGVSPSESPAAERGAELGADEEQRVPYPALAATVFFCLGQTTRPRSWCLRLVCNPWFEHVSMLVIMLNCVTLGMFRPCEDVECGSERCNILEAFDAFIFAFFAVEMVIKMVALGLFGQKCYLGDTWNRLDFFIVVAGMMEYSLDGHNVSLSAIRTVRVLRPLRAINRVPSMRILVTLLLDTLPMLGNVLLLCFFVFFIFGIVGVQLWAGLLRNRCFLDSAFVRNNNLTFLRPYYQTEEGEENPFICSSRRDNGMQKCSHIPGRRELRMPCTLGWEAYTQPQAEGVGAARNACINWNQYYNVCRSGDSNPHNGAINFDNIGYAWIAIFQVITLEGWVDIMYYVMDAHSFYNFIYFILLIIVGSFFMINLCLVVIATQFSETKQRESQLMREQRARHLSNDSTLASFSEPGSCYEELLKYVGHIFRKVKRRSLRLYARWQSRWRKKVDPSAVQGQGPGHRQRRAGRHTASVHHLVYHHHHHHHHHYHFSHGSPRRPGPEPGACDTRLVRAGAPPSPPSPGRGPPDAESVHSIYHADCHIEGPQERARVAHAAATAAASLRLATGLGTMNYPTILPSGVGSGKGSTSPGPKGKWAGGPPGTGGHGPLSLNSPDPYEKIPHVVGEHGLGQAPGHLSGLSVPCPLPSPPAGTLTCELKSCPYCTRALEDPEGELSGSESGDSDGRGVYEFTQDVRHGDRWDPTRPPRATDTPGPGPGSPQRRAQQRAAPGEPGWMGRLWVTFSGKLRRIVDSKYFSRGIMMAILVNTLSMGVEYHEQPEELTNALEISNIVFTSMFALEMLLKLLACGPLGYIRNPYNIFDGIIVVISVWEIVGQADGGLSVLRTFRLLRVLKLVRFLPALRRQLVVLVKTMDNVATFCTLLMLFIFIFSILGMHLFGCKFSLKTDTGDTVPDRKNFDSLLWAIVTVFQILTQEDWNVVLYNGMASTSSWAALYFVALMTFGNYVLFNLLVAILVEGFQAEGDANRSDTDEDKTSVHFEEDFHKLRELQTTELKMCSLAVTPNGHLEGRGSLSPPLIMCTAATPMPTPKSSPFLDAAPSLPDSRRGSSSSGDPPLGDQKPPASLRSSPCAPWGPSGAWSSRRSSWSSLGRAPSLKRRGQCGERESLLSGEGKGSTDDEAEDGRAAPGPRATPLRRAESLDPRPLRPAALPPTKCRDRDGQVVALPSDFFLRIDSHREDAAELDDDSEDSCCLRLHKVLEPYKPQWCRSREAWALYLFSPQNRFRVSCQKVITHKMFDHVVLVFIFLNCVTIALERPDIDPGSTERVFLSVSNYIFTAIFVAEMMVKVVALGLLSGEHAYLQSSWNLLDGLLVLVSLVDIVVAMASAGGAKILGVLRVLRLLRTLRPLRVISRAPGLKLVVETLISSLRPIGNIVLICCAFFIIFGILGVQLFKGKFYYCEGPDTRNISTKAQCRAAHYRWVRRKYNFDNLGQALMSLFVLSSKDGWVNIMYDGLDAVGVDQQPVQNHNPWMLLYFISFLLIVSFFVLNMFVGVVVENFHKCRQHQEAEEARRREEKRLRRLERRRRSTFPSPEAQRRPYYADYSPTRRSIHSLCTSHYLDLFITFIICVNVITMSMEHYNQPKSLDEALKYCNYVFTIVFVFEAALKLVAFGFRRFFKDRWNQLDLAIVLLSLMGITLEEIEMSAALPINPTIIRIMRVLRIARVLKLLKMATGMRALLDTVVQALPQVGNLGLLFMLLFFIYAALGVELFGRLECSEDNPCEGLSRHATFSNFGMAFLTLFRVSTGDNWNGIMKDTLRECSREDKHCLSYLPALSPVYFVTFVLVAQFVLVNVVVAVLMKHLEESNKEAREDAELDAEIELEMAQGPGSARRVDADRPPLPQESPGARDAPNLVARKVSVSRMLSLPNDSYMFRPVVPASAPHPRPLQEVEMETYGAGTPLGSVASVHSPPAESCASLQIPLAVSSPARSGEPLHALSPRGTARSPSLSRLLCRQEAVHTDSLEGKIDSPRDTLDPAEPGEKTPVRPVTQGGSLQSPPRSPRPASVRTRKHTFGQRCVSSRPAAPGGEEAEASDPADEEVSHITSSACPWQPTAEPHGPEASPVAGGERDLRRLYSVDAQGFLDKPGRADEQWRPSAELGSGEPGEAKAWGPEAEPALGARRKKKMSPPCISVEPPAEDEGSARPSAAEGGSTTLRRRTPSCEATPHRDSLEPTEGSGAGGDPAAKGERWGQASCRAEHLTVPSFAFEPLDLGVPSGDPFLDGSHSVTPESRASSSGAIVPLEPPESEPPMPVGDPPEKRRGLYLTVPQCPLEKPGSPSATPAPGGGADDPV
Peroxisome proliferator-activated receptor gamma/Nuclear receptor coactivator 2, sequence (P37231 whole entry): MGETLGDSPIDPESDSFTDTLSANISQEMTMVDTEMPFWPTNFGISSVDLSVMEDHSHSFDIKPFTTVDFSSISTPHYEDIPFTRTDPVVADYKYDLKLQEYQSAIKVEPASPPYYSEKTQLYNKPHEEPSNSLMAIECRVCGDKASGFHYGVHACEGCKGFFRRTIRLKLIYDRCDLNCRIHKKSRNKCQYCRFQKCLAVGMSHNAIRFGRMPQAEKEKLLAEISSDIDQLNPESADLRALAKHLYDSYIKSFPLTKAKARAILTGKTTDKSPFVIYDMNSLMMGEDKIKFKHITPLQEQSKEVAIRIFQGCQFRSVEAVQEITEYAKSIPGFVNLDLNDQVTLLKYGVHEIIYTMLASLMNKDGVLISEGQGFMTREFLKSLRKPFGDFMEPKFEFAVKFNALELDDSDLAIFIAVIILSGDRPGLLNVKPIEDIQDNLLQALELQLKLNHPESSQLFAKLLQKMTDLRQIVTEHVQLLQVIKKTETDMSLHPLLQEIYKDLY
Peroxisome proliferator-activated receptor gamma/Nuclear receptor coactivator 2, sequence (Q15596 whole entry, further chain): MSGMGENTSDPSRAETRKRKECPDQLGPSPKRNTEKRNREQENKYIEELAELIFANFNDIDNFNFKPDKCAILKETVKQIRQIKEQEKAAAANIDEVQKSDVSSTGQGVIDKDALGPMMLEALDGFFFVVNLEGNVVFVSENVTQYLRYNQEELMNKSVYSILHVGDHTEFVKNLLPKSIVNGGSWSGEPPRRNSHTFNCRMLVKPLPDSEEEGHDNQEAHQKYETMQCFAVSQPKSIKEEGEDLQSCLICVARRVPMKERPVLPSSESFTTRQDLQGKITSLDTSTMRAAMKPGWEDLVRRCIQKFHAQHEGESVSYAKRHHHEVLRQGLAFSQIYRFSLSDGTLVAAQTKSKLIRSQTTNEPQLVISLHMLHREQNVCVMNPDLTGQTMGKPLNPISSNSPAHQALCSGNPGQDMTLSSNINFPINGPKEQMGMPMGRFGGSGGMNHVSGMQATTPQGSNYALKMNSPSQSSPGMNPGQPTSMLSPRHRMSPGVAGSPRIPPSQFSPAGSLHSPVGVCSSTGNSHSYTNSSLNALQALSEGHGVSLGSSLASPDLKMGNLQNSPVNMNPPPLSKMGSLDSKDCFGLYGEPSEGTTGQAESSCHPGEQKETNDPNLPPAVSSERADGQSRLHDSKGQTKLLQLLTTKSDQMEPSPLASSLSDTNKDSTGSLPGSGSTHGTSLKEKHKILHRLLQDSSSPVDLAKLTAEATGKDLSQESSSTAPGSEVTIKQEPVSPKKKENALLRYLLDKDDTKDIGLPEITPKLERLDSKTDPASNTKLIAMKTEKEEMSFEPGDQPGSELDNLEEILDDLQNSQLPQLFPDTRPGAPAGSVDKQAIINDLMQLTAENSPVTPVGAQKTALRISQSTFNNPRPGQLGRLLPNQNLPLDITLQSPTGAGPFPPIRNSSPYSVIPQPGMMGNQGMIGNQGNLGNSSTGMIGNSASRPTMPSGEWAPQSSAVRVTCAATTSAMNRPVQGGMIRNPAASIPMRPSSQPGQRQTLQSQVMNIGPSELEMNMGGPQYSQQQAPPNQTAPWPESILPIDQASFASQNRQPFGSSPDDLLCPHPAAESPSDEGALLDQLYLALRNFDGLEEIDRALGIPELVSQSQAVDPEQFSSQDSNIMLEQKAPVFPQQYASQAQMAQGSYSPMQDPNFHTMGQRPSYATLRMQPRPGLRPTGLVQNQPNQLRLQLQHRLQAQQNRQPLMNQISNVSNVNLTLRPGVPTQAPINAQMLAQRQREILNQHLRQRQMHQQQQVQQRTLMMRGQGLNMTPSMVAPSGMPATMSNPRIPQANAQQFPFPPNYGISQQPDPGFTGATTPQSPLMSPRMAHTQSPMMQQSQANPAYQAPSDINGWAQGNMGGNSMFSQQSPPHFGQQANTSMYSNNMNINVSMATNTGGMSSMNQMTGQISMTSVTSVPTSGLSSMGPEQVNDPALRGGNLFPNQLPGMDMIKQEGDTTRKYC
Eukaryotic translation initiation factor 4E, sequence (P63073 whole entry): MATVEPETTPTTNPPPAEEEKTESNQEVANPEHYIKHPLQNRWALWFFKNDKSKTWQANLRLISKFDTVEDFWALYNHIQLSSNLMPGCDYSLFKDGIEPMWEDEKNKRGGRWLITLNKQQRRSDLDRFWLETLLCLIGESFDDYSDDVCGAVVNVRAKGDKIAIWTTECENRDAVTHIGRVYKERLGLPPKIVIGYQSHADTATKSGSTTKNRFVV

## O=C(CCc1ccccc1)NNC(=S)NC(=O)c1ccc(Cl)cc1
[1]
  EC50: > 150 µM (inconclusive)
[2]
  EC50: 0.335 µM (active)
[3]
  EC50: 2.16 µM (active)
[4]
  EC50: 6.45 µM (active)
[5]
  EC50: 5.31 µM (active)

## O=C(OCn1nnc2ccccc2c1=O)c1cn(-c2ccccc2)nc1-c1cccnc1
[6]
  IC50: > 50 µM (not active)

## O=C(Oc1cccc2cccnc12)c1ccc(Br)o1
[7]
  EC50: 13.9 µM (active)
[8]
  EC50: > 20 µM (not active)
[9]
  EC50: > 260 µM (inactive)

## c1cnc2nc(-c3ccc4c(c3)OCO4)cn2c1
[10]
  EC50: > 50 µM (active)

## Cc1ccc(C2=CC(c3ccc(N(C)C)cc3)n3nnnc3N2)cc1 (stereo not drawn)
[7]
  EC50: 0.09 µM (active)
[8]
  EC50: 0.21 µM (active)
[11]
  EC50: > 99 µM (inactive)
[12]
  AC50: 6.88 µM (active)
[13]
  EC50: > 99 µM (inactive)

## CCOc1ccc2ccccc2c1C(=O)N[C@@H]1C(=O)N2[C@@H]1SC(C)(C)[C@@H]2C(=O)O [NAFCILLIN SODIUM]
[10]
  EC50: > 50 µM (active)
[14]
  IC50: > 79 µM (inactive)

## CCN1CCN(c2nc3ccccc3nc2C(C#N)S(=O)(=O)c2ccc(C)cc2)CC1 (stereo not drawn)
[10]
  EC50: > 50 µM (active)

## Cn1c(=O)cc(Nc2ccccc2)c2c(=O)n(-c3ccccc3)c(=O)n(-c3ccccc3)c21
[15]
  IC50: > 80 µM (inactive)

## CCC(OC(=O)c1cc2sccc2n1C)C(=O)NCc1ccco1 (stereo not drawn)
[16]
  EC50: > 79.4 µM (inactive)
[17]
  EC50: > 79.4 µM (not active)
[18]
  EC50: > 26.5 µM (not active)

## CSc1nccc(-c2nn(-c3ccc(C)cc3)ccc2=O)n1
[19]
  IC50: > 80 µM (inactive)

## C=C(C)[C@@H]1CC[C@]2(C(=O)O)CC[C@]3(C)[C@H](CC[C@@H]4[C@@]5(C)CCC(=O)C(C)(C)[C@@H]5CC[C@]43C)[C@@H]12 [BETUNOLIC ACID]
[2]
  EC50: 1.68 µM (active)
[4]
  EC50: 2.88 µM (active)
[15]
  IC50: > 80 µM (inactive)

## Cc1ccn(CC(=O)NC2CCCN(Cc3ccc(CC(C)C)cc3)C2)n1 (stereo not drawn)
[5]
  EC50: 1.68 µM (active)

## O=C(COc1ccc(Cl)cc1Cl)Nc1nc2n(n1)C(c1ccccc1)CC(=O)N2 (stereo not drawn)
[20]
  EC50: 1.98 µM (active)

## COc1cc(C)c(S(=O)(=O)NCc2ccc3c(c2)OCO3)cc1C
[6]
  IC50: > 50 µM (not active)

## COc1nnc(-c2ccc(C)c(S(=O)(=O)NCCO)c2)c2ccccc12
[6]
  IC50: > 50 µM (not active)
[14]
  IC50: > 79 µM (inactive)

## CCOC(=O)c1[nH]c(C)c(C(=O)Nc2cc(OC)ccc2OC)c1C
[19]
  IC50: > 80 µM (inactive)

## C=CCn1c(SC(C)C(=O)NCCC2=CCCCC2)nc2ccccc2c1=O (stereo not drawn)
[20]
  EC50: 3.01 µM (active)

## Cc1cc(-c2ccc(S(=O)(=O)N(C)c3ccc(C)c(C)c3)s2)on1
[19]
  IC50: > 80 µM (inactive)

## Cc1cc(Cl)cc(C)c1OCCCCn1ccnc1
[21]
  CC50: 38.2 µM (active)
[5]
  EC50: 3.76 µM (active)
[22]
  IC50: 15.5 µM (active)

## COc1ccc(C(=O)C2CCCN(Cc3ccc(Sc4nncn4C)o3)C2)cc1F (stereo not drawn)
[5]
  EC50: 3.35 µM (active)

## Cc1cc(CSc2ccccc2)ccc1NC(=O)c1cccc([N+](=O)[O-])c1
[23]
  IC50: > 64 µM (inactive)

## COc1cc(-c2cc(=O)c3c(O)c(OC)c(OC)c(OC)c3o2)cc(OC)c1OC [GARDENIN]
[15]
  IC50: > 80 µM (inactive)
[24]
  AC50: 3.16 µM (inconclusive)

## CC(C)(C)c1ccc(-c2nnc(SCC(=O)NC3CC3)o2)cc1
[15]
  IC50: > 80 µM (inactive)

## CC(C)(C)n1nnnc1C(c1cccs1)N1CCCc2ccccc21 (stereo not drawn)
[20]
  EC50: 8.88 µM (active)

## CCn1c(=O)cc(SCC(=O)N2CCN(c3ccccc3OC)CC2)c2ccccc21
[16]
  EC50: > 79.4 µM (inactive)
[17]
  EC50: > 79.4 µM (not active)
[18]
  EC50: > 79.4 µM (not active)

## COc1ccc(CCN(C(=O)C(F)(F)F)C(C(=O)NC2CCCC2)c2cccs2)cc1 (stereo not drawn)
[10]
  EC50: > 50 µM (active)
[25]
  AC50: 25.1 µM (inconclusive)
